Experimental data reported in patent US20100087385A1 (priority 2006, published 2010).

Tested on: TNBS induced IBD rats
Assay: Experiment III: TNBS-ethanol induced IBD in rats
Assay type: in vivo, Wistar rats
Details: for Colonic lesion score: CON 0, M 6.00 ± 3.25; for Colon weight of length: CON 0.106 ± 0.011, M 0.376 ± 0.133; for MDA / MPO / SOD: colon homogenate; for MDA: CON 0.0360 ± 0.00632, M 0.0274 ± 0.0055; for MPO: CON 21.993 ± 2.061, M 134.038 ± 1.979; for SOD: CON 46.400 ± 8.202, M 38.005 ± 4.121
Excerpt: Wister rats were randomly divided into seven groups. There are four […] in each group, including normal control (CON) group, Model (M) group, positive control (SASP) group, diammonium glycyrrhizinate gavage administration (DI) group, diammonium glycyrrhizinate low dose (DGD) group, diammonium glycyrrhizinate medium dose (DGZ) group, and diammonium glycyrrhizinate high dose (DGG) group. No water and diets restriction were applied to mice during the period of the experiment.
Rats were anesthetized by ether. TNBS dissolved in 30% ethanol were injected into rat colon 8 cm in depth through anus with an i.v. tubing. The concentration of TNBS was 100 mg/Kg at the volumes of 0.20 ml/100 g. The rats were held up side down for 1 minute after the injection before released back to the cages.
There are seven groups total in this test. Rats in all groups were treated identically to create IBD models and the experimental conditions are described in the following.
Normal control (Con) group: Both TNBS-ethanol solution and treated drugs were replaced by normal saline. The dose of drug for treatment was 0.20 ml/100 g. Model (M) group: After creating the TNBS-ethanol induced IBD model in rats, normal saline instead of drug was used as a blank control for the comparison of drug treatment. The drug dose of IBD treatment was 0.20 ml/100 g. SASP group: SASP (22.5 mg/100 g) was used as a positive control. SASP was applied to rats through anus after ether anesthesia. Diammonium glycyrrhetate gavage administration (DI) group: Diammonium glycyrrhetate (10 mg/kg) was provided to rats by gavage after ether anesthesia. Diammonium glycyrrhetate, anal administration, low dose (DGD) group: Diammonium glycyrrhetate (2 mg/kg) was provided to rats through anus after ether anesthesia. Diammonium glycyrrhetate, anal administration, medium dose (DGZ) group: Diammonium glycyrrhetate (10 mg/kg) was provided to rats through anus after ether anesthesia. Diammonium glycyrrhetate, anal administration, high dose (DGG) group: Diammonium glycyrrhetate (50 mg/kg) was provided to rats through anus after ether anesthesia.
During the experimental period, daily activities and body weights of rats were investigated and recorded. Ten days after IBD model establishment, fasting was introduced to rats but water was provided continuously. Before sacrificing the rats, feces samples were taken for OB test; eyeballs were removed for blood sampling and serum samples were obtained after centrifugation. Radioimmunoassay kits were used to detect IL-1β, IL-6 and TNF-α in serum. The rats were cervical executed; organs of spleen and thymus were removed and weighted for the index calculation. The whole length of colon was weighted; weight per unit length of colon was calculated. The degrees of colon injury were evaluated according to the reference 23 with some modifications. We included the changes of intestinal adhesion, colon ulcer, and inflammatory as the score marks. The standard of score is same as we mentioned previously. The 3 mm colon samples were taken from the end part of colon; fixed by either neutral formaldehyde solution or 2.5% of glutaraldehyde solution for anatomy dissecting. The samples fixed by neutral formaldehyde solution were sent to perform H-E staining and immunohistochemical staining (IL-10, COX-II, and ICAM-1). The samples fixed by 2.5% of glutaraldehyde solution were photo-imaged by both scanning electron microscope and transmission electron microscope. The rest of samples were handled at ice-cold temperature to make 10% homogenization solution and stored at −20° C. for future use. MOP, SOD, MDA and amounts of tissue proteins were determined by Maehly, Pyrogallol, TBA, and Lowry methods.

[1] = DG medium dose group, through anus 10 mg/kg
[2] = DGD group: through anus, low dose 2 mg/kg
[3] = DGG group: through anus, high dose 50 mg/kg
[4] = DGZ group: through anus, medium dose 10 mg/kg
[5] = SASP group: 22.5 mg/100 g through anus
[6] = positive control (SASP) group: 22.5 mg/100 g through anus

CC1(C(=O)[O-])CCC2(C)CCC3(C)C(=CC(=O)C4C5(C)CCC([O-])C(C)(C)C5CCC43C)C2C1.[Na+].[Na+] (stereo not shown) [Disodium glycyrrhetate, disodium glycyrrhetate]
HE staining of colon tissue (FIG. 3) (DG gavage administration group, 10 mg/kg): less severe of symptoms with no ulcer formation | HE staining of colon tissue (FIG. 3) (DG high dose group, through anus 50 mg/kg): relieved symptoms and no ulcer formation is observed | HE staining of colon tissue (FIG. 3) (DG low dose group, through anus 2 mg/kg): relatively severe symptoms but without ulcer formation | HE staining of colon tissue (FIG. 3) [1]: no ulcer formation is seen | colon mucosa by scanning electron microscope (FIG. 4) [1]: relieved symptoms with less swelling | Colonic lesion score (DGD group: through anus, low dose 2 mg/kg (table head: mg/100 g)): 3.00 ± 1.69^ΔΔ | Colon weight of length [2]: 0.385 ± 0.218 g/cm | Colonic lesion score (DGG group: through anus, high dose 50 mg/kg (table head: mg/100 g)): 1.50 ± 0.89^ΔΔ | Colon weight of length [3]: 0.174 ± 0.059 g/cm | Colonic lesion score (DGZ group: through anus, medium dose 10 mg/kg (table head: mg/100 g)): 2.50 ± 1.39^ΔΔ | Colon weight of length [4]: 0.177 ± 0.065 g/cm | Colonic lesion score (DI group: gavage, 10 mg/kg (table head: mg/100 g)): 2.00 ± 1.20^ΔΔ | Colon weight of length (DI group: gavage, 10 mg/kg): 0.240 ± 0.085 g/cm | MDA [2]: 0.0431 ± 0.0243 µmol/mg | MPO [2]: 141.993 ± 2.494 U/g | SOD [2]: 28.847 ± 16.942 U/ml | MDA [3]: 0.0338 ± 0.0115 µmol/mg | MPO [3]: 111.753 ± 24.864 U/g | SOD [3]: 59.984 ± 3.205^Δ U/ml | MDA [4]: 0.0365 ± 0.0151 µmol/mg | MPO [4]: 83.868 ± 16.465^Δ U/g | SOD [4]: 46.095 ± 8.065 U/ml | MDA (DI group: gavage, 10 mg/kg): 0.0907 ± 0.0302 µmol/mg | MPO (DI group: gavage, 10 mg/kg): 100.576 ± 10.137^ΔΔ U/g | SOD (DI group: gavage, 10 mg/kg): 18.774 ± 8.700 U/ml

O=C(O)c1cc(/N=N/c2ccc(S(=O)(=O)Nc3ccccn3)cc2)ccc1O [SASP, Sulfasalazine, reference compound]
Colonic lesion score [5]: 3.00 ± 1.69^ΔΔ | Colon weight of length [5]: 0.354 ± 0.087 g/cm | Thymus index (SASP group: 22.5 mg/100 g through anus, CON 0.9302 ± 0.0984, M 0.0319 ± 0.1504): 0.2375 ± 0.0792 mg/g | Spleen index (SASP group: 22.5 mg/100 g through anus, CON 2.309 ± 0.135, M 3.893 ± 0.210): 3.326 ± 0.552 mg/g | MDA [5]: 0.0594 ± 0.0287 µmol/mg | MPO [5]: 44.916 ± 3.525^ΔΔ U/g | SOD [5]: 33.884 ± 2.656 U/ml | HE staining of colon tissue (FIG. 3) [6]: symptoms are reduced with no ulcers formation | colon mucosa by scanning electron microscope (FIG. 4) [6]: symptoms were relieved but with swelling in mucosa layer
